In brackets after ≈: the same amount, converted by molar mass.
Experiments:
C. albicans [1] = test: MIC, broth microdilution (NCCLS M27-A), C. albicans; format: cell-based, Candida albicans; settings: 48 hours, C. albicans ATCC 10231; for MIC C. albicans: 35° C.; for MIC: Candida albicans, ATCC10231, 35° C.
Description: (§1) Compounds of the invention were tested for antifungal susceptibility using broth microdilution assay established by the National Committee for Clinical Laboratory Standards, in NCCLS Document M27-A, which is hereby incorporated by reference. Minimum inhibitory concentrations (MICs) and minimum fungicidal concentrations (MFCs) were measured.
(§2) Yeasts (Saccharomyces cerevisiae and Candida albicans) are cultured on SDA plates in a 35° C. incubator. Strains on SDA plates are stored at 4° C. and used as working stock cultures.
(§3) Inoculum for susceptibility testing is prepared from fresh 24 hour cultures. 5-10 colonies are scraped from the plate and suspended in three milliliters of sterile 0.85% saline (8.5 g/liter NaCl). The cell density of the solution is determined by measuring the absorbance in a spectrophotometer (Shimadzu UV-1201S UV-VIS Spectrophotometer) set at 600 nm. An absorbance value between 0.1 and 0.4 is required for an accurate reading.
(§4) For Candida albicans strains ATCC 10231, 1.0 OD600 unit is approximately 10^7 cells per ml. For Saccharomyces cerevisiae strain CTY552, 1.0 OD600 unit is slightly less than 10^7 cells per ml. Cell suspensions are diluted with the appropriate medium (typically RPMI-1640) to OD600 =0.0003 for Candida and OD600 =0.0004 for Saccharomyces. The diluted suspension contains approximately 3×10^3 cells per ml (this is a 2×concentration inoculum). Two 100 μl aliquots of this dilution are spread on SDA plates and incubated at 35° C. for 1-2 days to determine the precise number of colony forming units. An acceptable range for the inoculum (2×) is 1-5×10^3 cfu/ml (100-500 for 100 μl). Following two-fold dilution of the inoculum with compound, the final concentration of cells will be 0.5-2.5×10^3 per ml. The inoculum is kept at 4° C. and used within a few hours.
(§5) Stock solutions and concentrations tested will vary from compound to compound. In general, though, stock solutions of 12.8 mg/ml in DMSO (Sigma D-8779) are prepared. This will allow for a 128 μg/ml starting test concentration containing 1% DMSO. Stock solutions are stored at -20° C. and dilutions for antifungal testing are freshly prepared before each assay.
(§6) Stock solutions of Amphotericin B and Itraconazole are prepared at 1.6 mg/ml in DMSO. Amphotericin B is sold as a powder that is approximately 80% Amphotericin B. Stock solutions are made accordingly (2.0 mg of powder for a 1 ml solution of 1.6 mg/ml Amphotericin B).
(§7) Both of these (control and test compounds) represent 1:50 dilutions. For an assay with three fungal strains, 40 microliters of a stock solution are diluted to 2.0 ml with room temperature medium.
(§8) Antifungal susceptibility tests are setup in polystyrene, 96-well, flat bottom plates (Costar 9017). To every well in columns 2-12 is added 100 microliters of media. An electronic multichannel (12) pipettor with no tip on channel one is used. To every well in column one is added 200 microliters of diluted compound (32 μg/ml for Amphotericin B and Itraconazole controls, 256 μg/ml for test compounds, 100-fold dilution for natural product extracts). A manual multichannel (8) pipettor is then used to set up a series of 2-fold dilutions. 100 microliters is removed from each well of column one and mixed with 100 microliters in column 2. This is done successively (column two to column three etc.) to produce a set of 11 serial dilutions (column 12 is a drug free control).
(§9) To every well in two rows, 100 μl of inoculum (2×) of a single strain is added. To the final two rows on the plate (G & H), only media is added. Addition of inoculum is best accomplished using an electronic multichannel (12) pipettor. This setup (see below) creates a starting cell density of […] (100-500 per well) and drug concentration ranging from 16 μg/ml to […] for controls (Amphotericin B and Itraconazole), 128 μg/ml to 0.125 μg/ml for pure test compounds, and 200 to 204, 800-fold dilutions for natural product extracts.

A. Nidulans = test: MIC, broth microdilution (NCCLS M27-A), A. nidulans; format: cell-based; settings: 35° C., 48 hours; for MIC: Aspergillus nidulans
Description: as §1
Filamentous fungi (Aspergillus spp.) is cultured on PDA plates in a 35° C. incubator. Inoculum of Aspergillus for susceptibility testing is prepared from plates incubated at 35° C. for 5 days. Colonies are covered with 5 ml of sterile 0.85% saline (8.5 g/liter NaCl) and gently rocked for 10-15 minutes. To dislodge the conidia, an automatic pipettor is used to gently wash over the colonies. The saline solution is removed from the plate and the heavy particles are allowed to settle for 3-5 minutes. The upper suspension is removed and vortexed for 15 sec. The turbidity of the solution is determined by measuring the absorbance in a spectrophotometer (Shimadzu UV-1201S UV-VIS Spectrophotometer) set at 600 nm. An absorbance value between 0.1 and 0.4 is required for an accurate reading.
The cell suspension is diluted with the appropriate medium (typically RPMI-1640) to OD600 =0.0004. The final suspension should contain approximately 3×10^3 cfu per ml (this is a 2×concentrationinoculum). Two 100 μl aliquots of this dilution are spread on SDA plates and incubated at 35° C. for 1-2 days to determine the precise number of colony forming units. An acceptable range for the inoculum (2×) is 1-5×10^3 cfu/ml (100-500 for 100 μl). Following two-fold dilution of the inoculum with compound, the final concentration of cells will be 0.5-2.5×10^3 per ml. The inoculum is kept at 4° C. and used within a few hours.
as §5, §6, §7, §8, §9

S. serevisiae = test: MIC, broth microdilution (NCCLS M27-A), S. cerevisiae; format: cell-based, Saccharomyces cerevisiae; settings: for MIC S. serevisiae: broth microdilution, 35° C., 48 hours, S. cerevisiae CTY552; for MIC: Saccharomyces cerevisiae, 48 h, read-out: MIC S. serevisiae
Description: as §1, §2, §3, §4, §5, §6
(§10) Stock solutions of control compounds (1.6 mg/ml, Amphotericin B or Itraconazole) are initially diluted in medium to a concentration of 32 μg/ml while stock solutions of test compounds (typically 12.8 mg/ml) are diluted to 256 μg/ml. Both of these (control and test compounds) represent 1:50 dilutions. For an assay with three fungal strains, 40 microliters of a stock solution are diluted to 2.0 ml with room temperature medium.
as §8
(§11) To every well in two rows, 100 μl of inoculum (2×) of a single strain is added. To the final two rows on the plate (G & H), only media is added. Addition of inoculum is best accomplished using an electronic multichannel (12) pipettor. […]

C. albicans [2] = test: Minimum fungicidal concentration (MFC), C. albicans; format: cell-based, Candida albicans; settings: viability on SDA plate, 35° C.; for MFC: Candida albicans
Description: as §1, §2, §3, §4, §5, §6, §10, §8, §11

Compound | MIC C. albicans (C. albicans [1]) | MIC A. Nidulans (A. Nidulans) | MIC S. serevisiae (S. serevisiae) | MFC C. albicans (C. albicans [2]) | MIC (C. albicans [1]) | MIC (A. Nidulans) | MIC (S. serevisiae) | MFC (C. albicans [2])
3,5-dichloro-2-hydroxybenzaldehyde-N-(3-chloro-2-pyrazinyl)hydrazine [(16)] | 8 µg/mL | 128 µg/mL | 8 µg/mL | > 128 µg/mL | – | – | – | –
COc1nccnc1N/N=C/c1cc(Cl)cc(Cl)c1O [(1), 3,5-dichloro-2-hydroxybenzaldehyde-N-(3-methoxy-2-pyrazinyl)hydrazone] | – | – | – | – | 1 µg/mL (≈ 3.19 µM) | 2 µg/mL (≈ 6.39 µM) | 1 µg/mL (≈ 3.19 µM) | > 128 µg/mL
COc1nccnc1NN=Cc1cc(Cl)ccc1O [(2)] | – | – | – | – | 1 µg/mL (≈ 3.59 µM) | 2 µg/mL (≈ 7.18 µM) | 1 µg/mL (≈ 3.59 µM) | > 128 µg/mL
COc1nccnc1NN=Cc1cccc(F)c1O [(3)] | – | – | – | – | 0.5 µg/mL (≈ 1.91 µM) | 2 µg/mL (≈ 7.63 µM) | 1 µg/mL (≈ 3.81 µM) | > 128 µg/mL
COc1nccnc1NN=Cc1ccccc1O [(4)] | – | – | – | – | 1 µg/mL (≈ 4.09 µM) | 2 µg/mL (≈ 8.19 µM) | 1 µg/mL (≈ 4.09 µM) | > 128 µg/mL
COc1nccnc1N/N=C/c1ccccn1 [(10)] | – | – | – | – | 2 µg/mL (≈ 8.72 µM) | 2 µg/mL (≈ 8.72 µM) | 1 µg/mL (≈ 4.36 µM) | > 128 µg/mL
CCOc1cccc(C=NNc2nccnc2OC)c1O [(11), 3-ethoxy-2-hydroxybenzaldehyde-N-(3-methoxy-2-pyrazinyl)hydrazone] | – | – | – | – | 2 µg/mL (≈ 6.94 µM) | 2 µg/mL (≈ 6.94 µM) | 1 µg/mL (≈ 3.47 µM) | > 128 µg/mL
COc1nccnc1NN=Cc1cccc([N+](=O)[O-])c1O [(12), 2-hydroxy-3-nitrobenzaldehyde-N-(3-methoxy-2-pyrazinyl)hydrazone] | – | – | – | – | 4 µg/mL (≈ 13.8 µM) | 8 µg/mL (≈ 27.7 µM) | 4 µg/mL (≈ 13.8 µM) | > 128 µg/mL
COc1ccc(C=NNc2nccnc2OC)c(O)c1 [(13), 2-hydroxy-4-methoxybenzaldehyde-N-(3-methoxy-2-pyrazinyl)hydrazone] | – | – | – | – | 1 µg/mL (≈ 3.65 µM) | 4 µg/mL (≈ 14.6 µM) | 0.5 µg/mL (≈ 1.82 µM) | > 128 µg/mL
COc1cc(Br)cc(C=NNc2nccnc2OC)c1O [(14), 5-bromo-2-hydroxy-3-methoxybenzaldehyde-N-(3-methoxy-2-pyrazinyl)hydrazone] | – | – | – | – | 0.5 µg/mL (≈ 1.42 µM) | 1 µg/mL (≈ 2.83 µM) | 0.5 µg/mL (≈ 1.42 µM) | > 128 µg/mL
COc1ccc(Br)c(C=NNc2nccnc2OC)c1O [(15), 6-bromo-2-hydroxy-3-methoxybenzaldehyde-N-(3-methoxy-2-pyrazinyl)hydrazone] | – | – | – | – | 1 µg/mL (≈ 2.83 µM) | 8 µg/mL (≈ 22.7 µM) | 1 µg/mL (≈ 2.83 µM) | > 128 µg/mL
Oc1c(Cl)cc(Cl)cc1/C=N/NC(=S)Nc1cc(C(F)(F)F)cc(C(F)(F)F)c1 [(35), N-[3,5bis(trifluoromethyl)phenyl]-2-[(E)-(3,5-dichloro-2-hydroxyphenyl)methylidene]-1-hydrazonecarbothioamide] | – | – | – | – | 2 µg/mL (≈ 4.2 µM) | 4 µg/mL (≈ 8.4 µM) | 2 µg/mL (≈ 4.2 µM) | > 128 µg/mL
Oc1ccccc1/C=N/NC(=S)Nc1cccc(F)c1 [(40)] | – | – | – | – | 32 µg/mL (≈ 111 µM) | > 128 µg/mL | 2 µg/mL (≈ 6.91 µM) | –
S=C(N/N=C/c1ccccn1)Nc1ccccc1 [(41)] | – | – | – | – | > 128 µg/mL | > 128 µg/mL | > 128 µg/mL | –
COC(=O)c1ccc(COc2ccc(/C=N/NC(=S)Nc3cccc(C(F)(F)F)c3)c(O)c2)cc1 [(43)] | – | – | – | – | 0.5 µg/mL (≈ 0.993 µM) | 0.25 µg/mL (≈ 0.497 µM) | 0.5 µg/mL (≈ 0.993 µM) | –
Oc1cc(OCc2ccccc2)ccc1/C=N/NC(=S)Nc1ccc(Cl)cc1 [(45), N-[(4-chloro-phenyl)]-2-[(E)-(4-benzyloxy-2-hydroxyphenyl)methylidene]-1-hydrazonecarbothiamide] | – | – | – | – | 1 µg/mL (≈ 2.43 µM) | 0.5 µg/mL (≈ 1.21 µM) | 0.5 µg/mL (≈ 1.21 µM) | –
COC(=O)c1ccc(COc2ccc(/C=N/NC(=S)Nc3ccc(Cl)cc3)c(O)c2)cc1 [(46)] | – | – | – | – | 1 µg/mL (≈ 2.13 µM) | 0.25 µg/mL (≈ 0.532 µM) | 0.25 µg/mL (≈ 0.532 µM) | –
O=C(O)c1ccc(COc2ccc(/C=N/NC(=S)Nc3ccc(Cl)cc3)c(O)c2)cc1 [(47), N-[(4-chloro-phenyl)]-2-[(E)-(4-carboxyl-benzyloxy-2-hydroxyphenyl)methylidene]-1-hydrazonecarbothiamide] | – | – | – | – | 2 µg/mL (≈ 4.39 µM) | 0.5 µg/mL (≈ 1.1 µM) | 1 µg/mL (≈ 2.19 µM) | –
Cc1cc(C)cc(NC(=S)N/N=C/c2ccc(OCc3ccccc3)cc2O)c1 [(50)] | 1 µg/mL (≈ 2.47 µM) | 0.5 µg/mL (≈ 1.23 µM) | 0.5 µg/mL (≈ 1.23 µM) | – | – | – | – | –
O=S(=O)(c1ccc(NC(=S)N/N=C/c2ccc(OCc3ccccc3)cc2O)cc1)N1CCCCC1 [(51)] | 16 µg/mL (≈ 30.5 µM) | 1 µg/mL (≈ 1.91 µM) | 0.5 µg/mL (≈ 0.953 µM) | – | – | – | – | –
N-[(3-trifluoromethyl)phenyl)]-2-[(E)-(4-allyl-phenyl)-benzyloxy-2-hydroxyphenyl)methylidene]-1-hydrazonecarbothiamide [(44)] | 8 µg/mL | 2 µg/mL | 2 µg/mL | – | – | – | – | –
